Consider 88 compounds from a melting point compilation (Tetko et al.; mined from patent text by program, amines drawn as free bases though some values may be those of a salt).

For the compound `CC(=O)NC(=S)N1CCSC1c1ccccc1OCCN1CC=C(c2cccc(F)c2)CC1` (stereo not drawn), the melting point (usually the temperature of the solid-liquid transition) lay within 135 to 136 °C.

As to `Cc1ccc2c(c1)N=C(N1CCC(C)CC1)c1cccc3c1N2CC3`, the melting point was in the range of 194 to 196 °C.

`COc1ccc2cc(-c3ccc(OCC(O)CNC(C)C)c(OC)c3)n(C)c(=O)c2c1` (stereo not drawn) showed a melting point of 144 to 146 °C.

For the compound `CCCc1c(OCCCCCC(=O)c2c(C)c(C)c(OC)c(OC)c2C)ccc(C(=O)O)c1O`, the melting point was in the range of 108 to 112 °C.

`CC(C)(C)n1nc2nc3n(c(=O)c2c1N)CCS3` registered a melting point of 154 to 158 °C.

As for `COC(=O)c1cc(Oc2c(Cl)cc(Cl)cc2Cl)ccc1[N+](=O)[O-]`, the melting point lay in the range of 101 to 103 °C.

For the compound `CC(C)(C)OC(=O)[C@H](O)CCc1ccc([N+](=O)[O-])cc1`, the melting point was in the range of 41 to 42 °C.

On to `CS(=O)(=O)N(Cc1cccnc1)c1ccc(Cl)cc1`, for which the melting point lay within 138 to 140 °C.

`CCOC(=O)C(=O)Nc1cc(C)ccc1[N+](=O)[O-]`: the melting point amounted to 114 °C.

The compound `O=C(O)c1ccc(-c2n[nH]c3c2Cc2ccccc2-3)cc1` yielded a melting point greater than 320 °C.

In the case of `CCOC(=O)CN(CC=CC(=O)Nc1cc2c(Nc3ccc(F)c(Cl)c3)ncnc2cc1OCC1CC1)CCOC(C)=O`, the melting point lay within 90 to 92 °C.

Compound `CC(=O)OCc1nc2nccnc2c(=O)[nH]1` came in with a melting point of 210 to 212 °C.

For the compound `CC1Cc2cccc3c4oc(=O)c(Br)c(O)c4c(=O)n1c23` (stereo not drawn), the melting point was in the range of 221 to 222 °C.

Regarding `Cn1cccc1-c1cc2nccnc2[nH]1`, the melting point lay in the range of 208 to 209 °C.

The compound `COc1cccc(NC(=N)Nc2cccc(OC)c2)c1` returned a melting point of 134 to 135 °C.

With `COC(C)COC1C(n2cc(C)c(=O)[nH]c2=O)OC(COCc2ccccc2)(COS(=O)(=O)c2ccc(C)cc2)C1(CCO)OCc1ccccc1` (stereo not drawn), the melting point lay within 90 to 92 °C.

In turn, `CC1(C)CC(=O)c2c(NCc3ccco3)sc(-c3cc[nH]n3)c2C1` displayed a melting point of 204 to 206 °C.

`Cc1nc2c3cccc(Cl)c3ccn2c1CC(N)=O`: the melting point lay in the range of 284 to 286 °C.

Compound `CCCCCCCC[C@H](N[C@@H](C)C(=O)N1C(=O)N(Cc2ccccc2)C[C@H]1C(=O)O)C(=O)OCC` gave a melting point of 86 to 88 °C.

Regarding `Cc1nn(C)c(NC=O)c1C1=CCC(C)CC1` (stereo not drawn), the melting point was in the range of 97 to 99 °C.

The compound `COC(=O)c1c(N)ccc([N+](=O)[O-])c1C` yielded a melting point of 92 to 94 °C.

With `Cc1cccc(C2=C(c3ccc(S(C)(=O)=O)cc3)CN(C3CC3)C2=O)c1`, the melting point was in the range of 136 to 137 °C.

Regarding `OC(CNc1nnc2n1CCCC2)COc1cccc(CN2CCCCC2)c1` (stereo not drawn), the melting point lay in the range of 141 to 142 °C.

Regarding `O=C1c2ccccc2C(=O)N1CCCOc1ccc(OCc2ccccc2)cc1`, the melting point was 141 to 143 °C.

`Cc1nc(N)nc(C)c1Br` returned a melting point of 183 to 185 °C.

Turning to `CCn1c(=O)c2c(nc(/C=C/c3cccc(OC)c3OC)n2C)n(CC)c1=O`, the melting point lay within 195 to 196 °C.

The compound `Cc1cc2c(-c3ccccc3F)nc(=O)n(C)c2s1` registered a melting point of 119 to 121 °C.

As for `COc1ccc(-n2cc(C(=O)N(CC(=O)O)c3ccc(OCC(C)(C)C)c(C#N)c3)c(C)n2)cc1`, the melting point lay within 98 to 101 °C.

On to `CN1C(=O)CC[C@]2(C)c3ccc(-c4cccnc4)cc3CC[C@@H]12`, for which the melting point worked out at 135 °C.

With `CCCC1CCN(CCCCC(=O)c2cc(Cl)c(N)cc2OCc2cc(OC)cc(OC)c2)CC1`, the melting point fell in the range of 119 to 120 °C.

Compound `O=C1c2ccccc2C(=O)N1CCCCCCc1cnc2ccccc2c1` yielded a melting point of 90 to 91 °C.

`COC(=O)C(C)(C)Oc1ccc(C(=O)c2cccs2)cc1`: the melting point turned out to be 85 °C.

Compound `O=C(O)CC1(O)CCc2c([nH]c3ccccc23)C1=O` (stereo not drawn) yielded a melting point of 156 to 157 °C.

The compound `COc1cc(CN2C(=O)CCC2=O)cc(OC)c1-c1ccc(C[C@H](NC(=O)c2c(Cl)cccc2Cl)C(=O)O)cc1` came in with a melting point of 137 °C.

Compound `CC(C)(C)c1cc(CCc2ccc(NC(=O)Nc3ccccc3)cc2)cc(C(C)(C)C)c1O` yielded a melting point of 206 to 207 °C.

`Oc1ccc(-c2nc3cc(O)ccc3o2)c(O)c1` registered a melting point greater than 300 °C.

In turn, `OCCCSC(=S)Nc1ccccn1` showed a melting point of 93 °C.

`CCOC(=O)c1cn(Cc2ccc(-c3ccccc3-c3nnnn3C(c3ccccc3)(c3ccccc3)c3ccccc3)cc2)c2sc(CC)cc2c1=O` yielded a melting point of 195 to 198 °C.

With `CC(C)(O)C(O)c1ccc(-c2ccc(/C(=C/C3CCOCC3)c3ccc(S(=O)(=O)C4CC4)cc3)[nH]2)nc1` (stereo not drawn), the melting point was 196 to 197 °C.

As to `CCOC(=O)C1=C(N2CCCC2)N=C(C)C(C(=O)OC)C1c1cccc([N+](=O)[O-])c1` (stereo not drawn), the melting point came to 103 °C.

Compound `CC1(NC(=O)C(Br)CBr)COCOC1` (stereo not drawn) returned a melting point of 115 to 119 °C.

Regarding `Cc1oc(-c2ccc(Cl)cc2)cc1C(=O)Nc1cc(Cl)ccc1-c1nnn[nH]1`, the melting point lay within 247 to 255 °C.

For the compound `O=C(O)c1cccc2c1Oc1c(cccc1C(=O)O)N2`, the melting point turned out to be 146 °C.

As for `COc1ncc(CS(=O)(=O)CC(=O)O)cc1[N+](=O)[O-]`, the melting point fell in the range of 183 to 186 °C.

`CC(C)(C)OC(=O)N[C@H](Cc1ccc(CC(F)(F)C(F)(F)F)cc1)[C@@H](O)c1cccc(Cl)c1` (racemic) showed a melting point of 156 to 157 °C.

As for `N#Cc1ccc(-c2ccc(NCCCC3CCCCO3)cc2)cc1` (stereo not drawn), the melting point was in the range of 111 to 113 °C.

In turn, `COc1ccc2c(c1)N(c1ccc(F)cc1)C(=O)C2(C)N` (stereo not drawn) came in with a melting point of 140 to 141 °C.

`OC(CCCN1CCCCC1)c1ccc2c(c1)Cc1cc(C(O)CCCN3CCCCC3)ccc1O2` (stereo not drawn) gave a melting point of 145 to 146 °C.

As for `CC(=O)NC1(c2ccc(=O)n(C)c2)CCCCC1`, the melting point was 194 to 195 °C.

For the compound `Cn1c(-c2cccs2)nnc1S(C)(=O)=O`, the melting point was in the range of 157 to 159 °C.

Compound `Cn1cc2c3c(ccc2n1)CCC3=CC#N` returned a melting point of 189 to 192 °C.

`Nc1ccc(Cc2nc3ccccc3o2)cc1` yielded a melting point of 105 to 106 °C.

Compound `N#CCc1cccc2c(-c3ccc(Cl)cc3)nccc12` returned a melting point of 132 °C.

As to `Cc1cc(C#N)cc(C)c1Nc1nc(Nc2ccc(C#N)cc2)ncc1Br`, the melting point lay in the range of 277 to 280 °C.

Compound `COC(=O)c1c2ccccc2nc2ccc(Cl)cc12` came in with a melting point of 130 °C.

Turning to `NS(=O)(=O)c1ccc(C#Cc2cnc3c(C(F)(F)F)cc(-c4ccc(C(F)(F)F)cc4)cn23)cc1`, the melting point is 278 to 280 °C.

`O=S(=O)(Oc1cccc(OCCC(c2ccccc2)(c2ccccc2)c2ccccc2)c1)c1ccccc1` came in with a melting point of 124 to 125 °C.

`S=c1[nH]nc(-c2ccc3ccccc3c2)s1`: the melting point was 254 to 256 °C.

As to `O=C(CNC(=O)OCc1ccc([N+](=O)[O-])cc1)Nc1ccc(C(=O)OCCl)cc1`, the melting point lay within 163 to 165 °C.

`CCCc1nc2c(N)nc3ccccc3c2n1CCCCN(O)C(=O)NC(C)C` gave a melting point of 158 to 160 °C.

In turn, `CCC(O)(CCC(N)=O)c1ccc(Cl)c(Cl)c1` (stereo not drawn) gave a melting point of 106 to 107 °C.

`Cc1ccccc1OCCN1CCC(CNc2nc3ccccc3s2)CC1`: the melting point amounted to 126 °C.

`CCOP(=O)(OCC)c1nc(NC2CC(C)(C)NC(C)(C)C2)nc(NC2CC(C)(C)NC(C)(C)C2)n1` returned a melting point of 195 °C.

In the case of `Cc1cc(Oc2c(Cl)cc(C(F)(F)F)cc2Cl)nn1C(=O)OC(C)(C)C`, the melting point lay in the range of 159 to 161 °C.

Compound `CC(C)Oc1ccc(N(N)C(=O)N(C)C)cc1Cl` had a melting point of 73 to 74 °C.

Compound `Cn1cc(C#N)c(-c2ccco2)n1` had a melting point of 104 to 106 °C.

In the case of `COC(=O)c1cccc2c1cc1n2CCCC1`, the melting point lay in the range of 102 to 103 °C.

Compound `Cc1cccc(N2C(=O)C(=CN(C)C)c3ccccc32)c1` came in with a melting point of 105 to 108 °C.

For the compound `O=C1C(=O)c2ccc(-c3ccccc3)cc2C2=C1SCC1(CCN(Cc3ccc(F)cc3)CC1)O2`, the melting point was 197 to 198 °C.

Compound `CONc1nc(N)nc2c1ncn2[C@@H]1C[C@H](CO)[C@@H](O)[C@H]1O` registered a melting point of 106 to 110 °C.

Turning to `CCOC(=O)C1=C(C)NC(SCc2ccc(OC)cc2)=NC1c1cccc([N+](=O)[O-])c1` (stereo not drawn), the melting point lay within 95 to 97 °C.

As for `O=[N+]([O-])c1ccc2sc(NCCO)nc2c1`, the melting point came out at 183 °C.

The compound `CCOC(=O)C(Cc1ccc(OCCN2CCC(C)(C)c3cc(C(=NO)c4ccccc4)ccc32)cc1)OCC` (stereo not drawn) showed a melting point of 46 to 48 °C.

With `CCCn1cc(C(=O)OCC)c(=O)c2cc(CN3CCOCC3)oc21`, the melting point lay in the range of 195 to 196 °C.

`CC(=O)Oc1ccc(C(=O)CN(CCNC(=O)Cc2ccccc2)Cc2ccccc2)cc1OC(C)=O` registered a melting point of 140 to 145 °C.

Regarding `O=[N+]([O-])c1ccc2c(c1)NP(=O)(N(CCCl)CCCl)NC2` (stereo not drawn), the melting point is 168 to 170 °C.

In turn, `CCN(CC)C(=O)CCc1ccc(O)c(N)c1` yielded a melting point of 92 to 93 °C.

For the compound `CS(=O)(=O)c1c(C(=O)O)ccc(Cl)c1Oc1ccccc1`, the melting point fell in the range of 231 to 235 °C.

Turning to `COC(CNC(=O)C(CS)CC(C)C)OC` (stereo not drawn), the melting point is 34 to 37 °C.

The compound `Cc1nc2ccccc2nc1Oc1ccc(OCc2ccccc2)cc1` had a melting point of 99 to 102 °C.

On to `O=C(c1sc2c(ccc(=O)n2-c2ccccc2)c1Br)N1CC(OC2CCCCO2)C1` (stereo not drawn), for which the melting point turned out to be 162 °C.

The compound `CCOC(=O)c1cc2ccc(CBr)cc2o1` returned a melting point of 95 to 102 °C.

For the compound `COc1ccc(CN(C)CCCCc2ccc(NC(=O)c3cnc4ccccc4n3)cc2)cc1OC`, the melting point fell in the range of 82 to 85 °C.

For `COC(=O)c1csc(-c2ccc(OC)cc2)n1`, the melting point is 67 to 79 °C.

In turn, `C#CCN(C)C(=S)Nc1ccccc1CC(=O)OC` registered a melting point of 83 to 84 °C.

For `O=c1[nH]c2cc(Cl)ccc2n1C1CCN(CCCNc2ccccc2[N+](=O)[O-])CC1`, the melting point came to 220 °C.

Compound `CS(=O)(=O)c1ccc(-c2cc(=O)n(CC3CCCCC3)nc2-c2ccc(F)cc2)cc1` yielded a melting point of 175 to 176 °C.

As to `CCOC(=O)NCCc1cc2ccccc2s1`, the melting point fell in the range of 65 to 66 °C.
